Patent publication US7030242B2, “Selective inhibition of aggrecanase in osteoarthritis treatment” (Pfizer Inc, priority 1999, dated 2006)

Tests used:
[1] = molecular target: T1, Human recombinant collagenase-1 (Homo sapiens, UniProt P03956); test: Inhibition of human collagenase-1 (recombinant collagenase-1 assay); assay type: biochemical; conditions: Table 2, read-out: MMP-1 (IC50 class)
T1 sequence (P03956 100-469): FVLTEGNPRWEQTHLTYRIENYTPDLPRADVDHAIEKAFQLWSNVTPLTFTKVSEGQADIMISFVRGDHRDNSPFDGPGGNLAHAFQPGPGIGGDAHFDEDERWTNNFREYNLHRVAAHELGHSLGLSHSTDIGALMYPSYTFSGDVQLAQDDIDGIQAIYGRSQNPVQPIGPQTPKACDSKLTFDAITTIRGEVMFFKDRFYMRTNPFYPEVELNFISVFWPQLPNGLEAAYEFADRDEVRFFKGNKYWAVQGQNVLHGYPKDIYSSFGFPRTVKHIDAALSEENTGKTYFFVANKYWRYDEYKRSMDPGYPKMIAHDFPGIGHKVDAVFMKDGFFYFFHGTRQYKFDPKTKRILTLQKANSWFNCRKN
Description: Inhibition of Human Collagenase-1 (Recombinant Collagenase-1 Assay)
This assay is used in the invention to measure the potency (IC50s) of compounds for collagenase-1.
Human recombinant collagenase-1 is activated with trypsin. The amount of trypsin is optimized for each lot of collagenase-1, but a typical reaction uses the following ratio: 5 mg trypsin per 100 mg of collagenase.
Stock solutions (10 mM) of inhibitors are made up in dimethylsulfoxide and then diluted using the following scheme: • 10 mM------>120 μM------>12 μM------>1.2 μM------>0.12 μM
Twenty-five microliters of each concentration is then added in triplicate to appropriate wells of a 96 well microfluor plate. The final concentration of inhibitor will be a 1:4 dilution after addition of enzyme and substrate. Positive controls (enzyme, no inhibitor) are set up in wells D7–D12 and negative controls (no enzyme, no inhibitors) are set in wells D1–D6.
Collagenase-1 is diluted to 240 ng/ml and […] is then added to appropriate wells of the microfluor plate. Final concentration of collagenase in the assay is 60 ng/ml.
Substrate (DNP-Pro-Cha-Gly-Cys(Me)-His-Ala-Lys(NMA)-NH2) is made as a 5 mM stock in dimethylsulfoxide and then diluted to 20 μM in assay buffer. The assay is initiated by the addition of […] substrate per well of the microfluor plate to give a final concentration of 10 μM.
Fluorescence readings (360 nm excitation, 460 nm emission) are taken at time 0 and then at about 20 minute intervals. The assay is conducted at a temperature of about 20 to about 25° C., preferably about 23° C. with a typical assay time of about 3 hours.
Fluorescence versus time is then plotted for both the blank and collagenase containing samples (data from triplicate determinations is averaged). A time point that provides a good signal (at least five fold over the blank) and that is on a linear part of the curve (usually around 120 minutes) is chosen to determine IC50 values. The zero time is used as a blank for each compound at each concentration and these values are subtracted from the 120 minute data. Data is plotted as inhibitor concentration versus % control (inhibitor fluorescence divided by fluorescence of collagenase alone ×100).

[2] = molecular target: Human recombinant collagenase-3 (Homo sapiens, UniProt P45452); test: Inhibition of human collagenase-3 (recombinant collagenase-3 assay); assay type: biochemical; conditions: Table 2; recombinant collagenase-3 assay; read-out: MMP-13 (IC50 class)
Description: Inhibition of Human Collagenase-3 (Recombinant Collagenase-3 Assay)
This assay is used in the invention to measure the potency (IC50s) of compounds for collagenase-3.
Human recombinant collagenase-3 is activated with 2 mM APMA (p-aminophenyl mercuric acetate) for about 2.0 hours, at about 37° C. and is diluted to about 240 ng/ml in assay buffer (50 mM Tris, pH 7.5, 200 mM sodium chloride, 5 mM calcium chloride, […], 0.02% BRIJ-35). Twenty-five micro-liters of diluted enzyme is added per well of a 96 well microfluor plate.
The final concentrations in the assay are 30 μM, 3 μM, 0.3 μM, and 0.03 μM.
Fluorescence readings (360 nm excitation; 450 nm emission) are taken at time 0 and about every 5 minutes for about 1 hour.
Positive controls and negative controls are set up in triplicate as outlined in the collagenase-1 assay. IC50's are determined as per inhibition of human collagenase (collagenase-1).

aggrecanase = test: Aggrecanase chondrocyte assay (35S-proteoglycan release, IL-1 stimulated); assay type: cell-based, porcine; conditions: Table 2; aggrecanase chondrocyte assay; read-out: Agg (aggrecanase IC50 class)
Description: Aggrecanase Chondrocyte Assay
This assay is used in the invention to measure the potency (IC50s) of compounds for aggrecanase.
Primary porcine chondrocytes from articular joint cartilage are isolated by sequential trypsin and collagenase digestion followed by collagenase digestion overnight and are plated at 2×10^5 cells per well into 48 well plates with 5 μCi/ml ^35S (1000 Ci/mmol) sulphur in type I collagen coated plates. Cells are allowed to incorporate label into their proteoglycan matrix (approximately 1 week) at 37° C., under an atmosphere of 5% CO2.
The night before initiating the assay, chondrocyte monolayers are washed two times in DMEM/1% PSF/G and then allowed to incubate in fresh DMEM/1% FBS overnight.
The following morning chondrocytes are washed once in DMEM/1% PSF/G. The final wash is allowed to sit on the plates in the incubator while making dilutions. Media and dilutions can be made as described in the Table I below.
Plates are labeled and only the interior 24 wells of the plate are used. On one of the plates, several columns are designated as IL-1 (no drug) and Control (no IL-1, no drug). These control columns are periodically counted to monitor 35S-proteoglycan release. Control and IL-1 media are added to wells (450 μl) followed by compound (50 μl) so as to initiate the assay. Plates are incubated at 37° C., with a 5% CO2 atmosphere.
At 40–50% release (when CPM from IL-1 media is 4–5 times control media) as assessed by liquid scintillation counting (LSC) of media samples, the assay is terminated (about 9 to about 12 hours). Media is removed from all wells and placed in scintillation tubes. Scintillate is added and radioactive counts are acquired (LSC). To solubilize cell layers, 500 μL of papain digestion buffer (0.2 M Tris, pH 7.0, 5 mM EDTA, 5 mM DTT, and 1 mg/ml papain) is added to each well. Plates with digestion solution are incubated at 60° C. overnight. The cell layer is removed from the plates the next day and placed in scintillation tubes. Scintillate is then added, and samples counted (LSC).
The percent of released counts from the total present in each well is determined. Averages of the triplicates are made with control background subtracted from each well.

TACE = molecular target: T2, TACE (Homo sapiens, UniProt P78536); test: Inhibition of soluble TNF-α production (TACE whole blood assay); assay type: cell-based; conditions: Table 2, read-out: TACE (IC50 class)
T2 construct: Human mononuclear cells are isolated from anti-coagulated human blood; endogenous in cells; host or cells: human peripheral blood mononuclear cells, LPS stimulated
T2 sequence (P78536 215-824): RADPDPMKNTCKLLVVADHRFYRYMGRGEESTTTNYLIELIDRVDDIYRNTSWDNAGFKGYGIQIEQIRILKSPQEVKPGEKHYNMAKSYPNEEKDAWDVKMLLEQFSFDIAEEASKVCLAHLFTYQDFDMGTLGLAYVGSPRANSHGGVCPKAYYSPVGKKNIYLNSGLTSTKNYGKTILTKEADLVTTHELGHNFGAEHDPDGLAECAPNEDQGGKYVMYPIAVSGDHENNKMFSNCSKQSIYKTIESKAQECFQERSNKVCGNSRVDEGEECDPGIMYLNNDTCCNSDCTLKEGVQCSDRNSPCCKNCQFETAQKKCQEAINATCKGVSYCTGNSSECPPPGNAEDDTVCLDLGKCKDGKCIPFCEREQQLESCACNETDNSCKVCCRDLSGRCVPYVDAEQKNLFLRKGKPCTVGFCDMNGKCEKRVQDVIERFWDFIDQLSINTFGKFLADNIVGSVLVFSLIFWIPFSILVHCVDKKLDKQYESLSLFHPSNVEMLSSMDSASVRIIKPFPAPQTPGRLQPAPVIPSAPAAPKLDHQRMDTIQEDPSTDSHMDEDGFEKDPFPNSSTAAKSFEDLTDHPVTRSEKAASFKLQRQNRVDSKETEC
Description: Inhibition of Soluble TNF-α Production (TACE Whole Blood Assay)
This assay is used in the invention to measure the potency (IC50s) of compounds for TACE.
Human mononuclear cells are isolated from anti-coagulated human blood using a one-step Ficoll-hypaque separation technique. (2) The mononuclear cells are washed three times in Hanks balanced salt solution (HBSS) with divalent cations and re-suspended to a density of 2×10^6/ml in HBSS containing 1% BSA.
180 μL of the cell suspension was aliquoted into flat bottom 96 well plates (Costar). Additions of compounds and LPS (100 ng/ml final concentration) gives a final volume of 200 μL. All conditions are performed in triplicate. After about a four hour incubation at about 37° C. in an humidified CO2 incubator, plates are removed and centrifuged (about 10 minutes at approximately 250×g) and the supernatants removed and assayed for TNF-α using the R&D ELISA Kit.

Row | SMILES | IC50 [1] [nM] | IC50 [2] [nM] | IC50 (aggrecanase) [nM] | IC50 (TACE) [nM]
1 | CC1(C)C[C@@H](O)CN(S(=O)(=O)c2ccc(OCc3ccc(F)cc3Cl)cc2)[C@H]1C(=O)NO [(2R,5R) 1-[4-(2-chloro-4-fluoro-benzyloxy)-benzenesulfonyl]-5-hydroxy-3,3-dimethyl-piperidine-2-carboxylic acidhydroxyamide] | 200 to 1000 | < 10 | < 10 | 10000 to 20000
2 | C[C@@]1(O)CCCN(S(=O)(=O)c2ccc(OCc3ccc(Cl)cc3Cl)cc2)[C@H]1C(=O)NO [(2R,3R) 1-[4-(2,4-dichloro-benzyloxy)-benzenesulfonyl]-3-hydroxy-3-methyl-piperidine-2-carboxylic acidhydroxyamide] | 200 to 1000 | < 10 | < 10 | 10000 to 20000
3 | C[C@@]1(O)CCCN(S(=O)(=O)c2ccc(OCc3ccc(F)cc3F)cc2)[C@H]1C(=O)NO [(2R,3R) 1-[4-(2,4-difluoro-benzyloxy)-benzenesulfonyl]-3-hydroxy-3-methyl-piperidine-2-carboxylic acidhydroxyamide] | 200 to 1000 | < 10 | 10 to 20 | 10000 to 20000
4 | Cc1c(F)cccc1COc1ccc(S(=O)(=O)N2C[C@H](O)CC(C)(C)[C@@H]2C(=O)NO)cc1 [(2R,5R) 1-[4-(2-methyl-3-fluoro-benzyloxy)-benzenesulfonyl]-5-hydroxy-3,3-dimethyl-piperidine-2-carboxylic acidhydroxyamide] | 200 to 1000 | < 10 | < 10 | < 10000
5 | Cc1ccccc1COc1ccc(S(=O)(=O)N2CCC[C@](C)(O)[C@@H]2C(=O)NO)cc1 [(2R,3S) 1-[4-(2-methyl-benzyloxy)-benzenesulfonyl]-3-hydroxy-3-methyl-piperidine-2-carboxylic acidhydroxyamide] | 200 to 1000 | < 10 | 10 to 20 | < 10000
6 | CNC(=O)N1CCN(S(=O)(=O)c2ccc(OCc3cc(F)ccc3C)cc2)[C@@H](C(=O)NO)[C@@H]1C | > 1000 | < 10 | < 10 | < 10000
7 | Cc1cc(F)ccc1COc1ccc(S(=O)(=O)N2C[C@H](O)CC(C)(C)[C@@H]2C(=O)NO)cc1 [(2R,5R) 1-[4-(4-fluoro-2-methyl-benzyloxy)-benzenesulfonyl]-5-hydroxy-3,3-dimethyl-piperidine-2-carboxylic acidhydroxyamide] | 200 to 1000 | < 10 | < 10 | < 10000
8 | Cc1ccccc1COc1ccc(S(=O)(=O)N2CCC[C@@](C)(O)C2C(=O)NO)cc1 (stereo partly drawn) [(2R,3R) 1-[4-(2-methyl-benzyloxy)-benzenesulfonyl]-3-hydroxy-3-methyl-piperidine-2-carboxylic acidhydroxyamide] | 200 to 1000 | < 10 | < 10 | < 10000
9 | Cc1ccccc1COc1ccc(S(=O)(=O)N2CCN(C(=O)CN)[C@@H](C)[C@@H]2C(=O)NO)cc1 [(2R,3S) 1-[4-(2-methyl-benzyloxy)-benzenesulfonyl]-4-aminoacetyl-3-methyl-piperazine-2-carboxylic acidhydroxyamide] | > 1000 | 20 to 200 | < 10 | < 10000
10 | Cc1cc(F)ccc1COc1ccc(S(=O)(=O)N2CC(=O)N[C@@H](C)[C@@H]2C(=O)NO)cc1 [(2R,3S) 1-[4-(4-fluoro-2-methyl-benzyloxy)-benzenesulfonyl]-3-methyl-5-oxo-piperazine-2-carboxylic acidhydroxyamide] | > 1000 | 10 to 20 | < 10 | < 10000
11 | Cc1ccc(F)cc1COc1ccc(S(=O)(=O)N2CC(=O)N[C@@H](C)[C@@H]2C(=O)NO)cc1 [(2R,3S) 1-[4-(2-methyl-5-fluoro-benzyloxy)-benzenesulfonyl]-3-methyl-5-oxo-piperazine-2-carboxylic acidhydroxyamide] | > 1000 | 10 to 20 | < 10 | < 10000
12 | Cc1ccc(Cl)cc1COc1ccc(S(=O)(=O)N2C[C@H](O)CC(C)(C)[C@@H]2C(=O)NO)cc1 [(2R,5R) 1-[4-(2-methyl-5-chloro-benzyloxy)-benzenesulfonyl]-5-hydroxy-3,3-dimethyl-piperidine-2-carboxylic acidhydroxyamide] | > 1000 | 20 to 200 | 10 to 20 | 10000 to 20000
13 | C[C@@]1(O)CCCN(S(=O)(=O)c2ccc(OCc3ccc(Cl)cc3F)cc2)[C@H]1C(=O)NO [(2R,3R) 1-[4-(2-fluoro-4-chloro-benzyloxy)-benzenesulfonyl]-3-hydroxy-3-methyl-piperidine-2-carboxylic acidhydroxyamide] | 20 to 200 | < 10 | < 10 | > 40000
